The text below walks through data of patent US20240335439A1, “USE OF AND METHOD FOR TELAPREVIR IN PREPARATION OF DRUG FOR TREATING AN ISCHEMIA/REPERFUSION INJURY AND CYTOPROTECTIVE DRUG” (THE THIRD XIANGYA HOSPITAL OF CENTRAL SOUTH UNIVERSITY, priority 2021, published 2024).

The subject of assay [1] is ischemic stroke rat models. Description: Ischemic stroke rat model (MCAO 2 h, reperfusion 24 h). In kind it is in vivo, SD rats. As to conditions: telaprevir 60 mg/kg after 2 hours of ischemia and 1 hour of reperfusion. The procedure: Experimental animals: Healthy male SD rats weighing 250-300 g. The experimental animals were raised for one week in an environment with a temperature of 25° C., a relative humidity of 60%, free drinking water, and timed and quantified feeding, and then administered according to the requirements of each experimental group.
Method for building an ischemic stroke rat model: A cerebral ischemia/reperfusion rat model was prepared by a middle cerebral artery occlusion (MCAO) method. […]
Rat brain TTC staining and infarct volume measurement: After the rat was anesthetized, the brain was quickly taken out, the olfactory bulb and posterior brain were removed, and five coronal brain slices having a thickness of about 2.0 mm were cut from the antiunion, immediately placed in a 1% TTC solution, incubated at 37° C. in dark for 30 minutes, and then soaked and immobilized in a 10% paraformaldehyde solution. […] The infarct area of each brain slice was measured by ImageJ, and an infarct volume of the whole brain was calculated according to a formula: infarct volume=[(sum of front infarct areas of all slices+sum of back infarct areas of all slices)/2]×the thickness of each slice, that is, a sum of infarct volumes of all brain slices. […]
Neurological function scores of rats were detected and cerebral infarct volumes were measured.

For assay [2], the system named is ischemic stroke mouse models. Description: Ischemic stroke mouse model (MCAO 1 h, reperfusion 24 h). In kind it is in vivo, C57BL/6J mice. As to conditions: telaprevir 90 mg/kg intramuscular after 1 hour of ischemia and 1 hour of reperfusion. The procedure: Experimental animals: 7-week-old male C57BL/6J mice. The experimental animals were raised for one week in an environment with a temperature of 25° C., a relative humidity of 60%, free drinking water, and timed and quantified feeding, and then administered according to the requirements of each experimental group.
Method for building an ischemic stroke mouse model: A cerebral ischemia/reperfusion mouse model was prepared by a middle cerebral artery occlusion (MCAO) method. The steps were as follows: after an 8-week-old male C57BL/6J mouse was anesthetized by intraperitoneal injection with 0.3% pentobarbital sodium (20 mL/kg), a left common carotid artery (CCA) was isolated, and a left external carotid artery (ECA) and internal carotid artery (ICA) were isolated upwards; the ECA and ICA were temporarily occluded with ophthalmic forceps, and a proximal end of the CCA was ligated; a knotted spare silk suture was placed at a distal end of the CCA, a small incision was cut below the suture, an occlusion suture was inserted into the internal carotid artery, arterial clips on the ECA and ICA were released, and the occlusion suture was delivered into the cranium along the ICA; and when encountering resistance, the silk suture was tightened, the occlusion suture was secured. […]
Neurological function scores of mice were detected and cerebral infarct volumes were measured.

Turning to `CCC[C@H](NC(=O)[C@@H]1[C@H]2CCC[C@H]2CN1C(=O)[C@@H](NC(=O)[C@@H](NC(=O)c1cnccn1)C1CCCCC1)C(C)(C)C)C(=O)C(=O)NC1CC1` [telaprevir], the “neurological impairment symptoms (Longa neurological function score) of rats” value in assay [1] (##P<0.01 vs I/R, FIG. 2B) is “significantly improve”. The “cerebral infarct volume of rats (TTC staining)” value in assay [1] (vs I/R, FIG. 2A) is “significantly decreased”. The “neurological impairment symptoms (Longa neurological function score) of mice” value in assay [2] (##P<0.01 vs I/R, FIG. 3B) is given as “significantly improve”. The “cerebral infarct volume of mice (TTC staining)” value in assay [2] (vs I/R, FIG. 3A) is “significantly decreased”.
